Experimental data published in patent US9034895B2, “Composition and methods for treating glioblastoma” (University of Washington Through its Center for …, priority 2010, dated 2015).

Experiments:
T98g cells = assay: Cell viability assay (WST-1), toxic potency and efficacy at T98g cells; format: cell-based; details: Homo sapiens, 72 h
Experimental: (§1) Cells were plated media supplemented with 10% serum in 96-well plates (10^4 cells per wellI; 0.1 ml per well). Once they reached ˜70% confluence, they were rinsed with PBS and kept for an additional 24 hrs in media supplemented with 1% serum, at which time drugs or vehicle (DMSO, 0.1%, prepared in 10 μl serum-free media) were directly added to each well. After 3 days, cell viability was assessed using the Cell Proliferation Reagent WST-1 (Roche, Indianapolis, Ind.). Briefly, WST-1 reagent (10 μl) was added to each well for 3 hrs at 37° C. with 5% CO2 and WST-1 products were read at 450 nm using Packard SpectraCount™.
Because the strongest toxic effect of WIN55212-2 was measured in T98g cells, these cells are used as readout to study the structure activity relationship (SAR) of AAI compounds at inducing cell death through AAI receptors.

[1] = test system: cardiac and motorneuron progenitors; assay: Toxic profile in progenitor cells; format: cell-based; details: compared with astrocytoma cell lines
Experimental: (§2) JWH-451 was tested for toxicity in cells expressing GPR124.

CB2 = biological target: T1, CB2 (Mus musculus, UniProt P47936); assay: Radioligand competition binding, [3H]-CP55940, CB2-expressing HEK293 membranes
T1 construct: plasmids containing full coding region of mouse CB1 and CB2; expressed in transfected cells
Experimental: (§3) Stable CB1 and CB2 expressing HEK293 cell lines were generated using plasmids containing full coding region of mouse CB1 and CB2.
(§4) Fragments were amplified from total RNA of cell lines by reverse transcriptase-polymerase chain reaction (RT-PCR). Sequence was confirmed and the fragment was cloned into the EcoRI site of the pIRES2-eGFP-express vector. Cells were grown to approximately 80% confluence in 10 cm cell culture dishes, transfected with the cDNA pIRES-eGFP-vector containing the murine CB1 or CB2 receptor using LipofectAMINE™ 2000 reagent in the serum-free media Opti-MEM 1 according to the manufacturer's description. Cells were subject to FACS sorting 48 h after transfection and single cell sorted based on dsRed expression into 96-well plates. Of the dsRed expressing positive clones, 3 were validated for CB1 and CB2 protein expression by radioligand binding analysis (methods discussed below).
(§5) Cells were grown to 90% confluence, rinsed twice with 1×PBS and stored at −80° C. until further use. To prepare crude cellular membrane fractions, dishes were removed from −80° C. and thawed at room temperature for 5 min. Once thawed, cells were lysed with ice-cold homogenization buffer (50 mM Tris, 1 mM EDTA, 3 mM MgCl2) and gently scraped from the dish. Total cell lysates from 3-5 dishes were collected on ice in 3 ml of ice-cold homogenization buffer. Cells were homogenized at 6,500 rpm (PRO Scientific, Oxford, Conn.) twice for 10 sec and centrifuged at 11,500 rpm for 20 min at 4° C. Supernatants were discarded and cell pellets were resuspended in homogenization buffer and triturated 10 times in ice-cold homogenization buffer. Crude cellular membrane homogenates were stored at −80° C. until further use. On the day of experiments, frozen homogenates were thawed at room temperature, gently triturated 10 times and subsequently dounce homogenized in a 7 ml glass tissue grinder (Wheaton Science Products, Millville, N.J.) by 5 strokes while on ice. […]

[2] = test system: endothelial cell line bEnd.3; assay: Toxic profile in endothelial cell line; format: cell-based
Experimental: as §2

CB1 = biological target: T2, CB1 (Mus musculus, UniProt P47746); assay: Radioligand competition binding, [3H]-CP55940, CB1-expressing HEK293 membranes
T2 construct: plasmids containing full coding region of mouse CB1 and CB2; expressed in transfected cells
Experimental: as §3, §4, §5

U251, A172 and GBM8 = assay: Toxic profile in human astrocytoma cell lines; format: cell-based; details: range over the three cell lines (FIG. 4), read-out: potency at killing human astrocytoma cell lines U251, A172 and GBM8
Experimental: as §1, §2

[3] = test system: mouse neurons in primary culture; assay: Toxic profile in neurons in primary culture; format: cell-based

T1 sequence (P47936 whole entry): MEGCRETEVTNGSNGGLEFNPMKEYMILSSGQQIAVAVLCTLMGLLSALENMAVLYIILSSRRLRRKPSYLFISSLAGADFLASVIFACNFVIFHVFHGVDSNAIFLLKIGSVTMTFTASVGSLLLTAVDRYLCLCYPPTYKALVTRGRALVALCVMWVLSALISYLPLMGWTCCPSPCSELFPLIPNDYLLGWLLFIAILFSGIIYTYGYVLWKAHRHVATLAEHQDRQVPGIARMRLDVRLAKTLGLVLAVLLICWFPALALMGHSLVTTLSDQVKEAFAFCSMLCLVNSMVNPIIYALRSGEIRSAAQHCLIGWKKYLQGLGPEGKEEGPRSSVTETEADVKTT
T2 sequence (P47746 whole entry): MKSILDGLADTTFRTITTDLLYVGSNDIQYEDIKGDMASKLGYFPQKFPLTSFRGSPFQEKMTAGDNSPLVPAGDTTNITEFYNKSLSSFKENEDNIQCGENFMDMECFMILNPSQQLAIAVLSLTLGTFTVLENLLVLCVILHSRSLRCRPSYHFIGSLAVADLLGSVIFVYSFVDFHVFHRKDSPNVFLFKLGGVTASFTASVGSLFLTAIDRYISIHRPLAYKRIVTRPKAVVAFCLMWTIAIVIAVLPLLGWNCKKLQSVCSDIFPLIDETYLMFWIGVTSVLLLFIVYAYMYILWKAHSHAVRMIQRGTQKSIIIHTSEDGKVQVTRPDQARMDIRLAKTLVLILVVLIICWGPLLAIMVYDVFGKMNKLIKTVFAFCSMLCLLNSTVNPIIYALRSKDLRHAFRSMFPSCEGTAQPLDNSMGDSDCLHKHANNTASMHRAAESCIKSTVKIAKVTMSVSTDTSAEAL

CCn1c(C)c(C(=O)c2ccc(C)c3ccccc23)c2ccccc21 [JWH-451, 1-Ethyl-2-methyl-3-(4-methyl-1-napthoyl)indole]
Emax (T98g cells; read-out: Toxic potency at T98g cells (percent efficacy)): 81%
EC50 (T98g cells; read-out: Toxic potency at T98g cells potency μM): 1.1 µM
toxic effect on cardiac and motorneuron progenitors [1]: much less toxic effect
competition for [3H]-CP55940 binding at CB2 (CB2; FIG. 2): does not
lower affinity at CB2 receptors than WIN55212-2 (CB2; relative to WIN55212-2): 100 fold
viability of endothelial cell line bEnd.3 [2]: did not affect the viability
competition for [3H]-CP55940 binding at CB1 (CB1; FIG. 2 (CB1 not shown)): does not
lower affinity at CB1 receptors than WIN55212-2 (CB1; relative to WIN55212-2): 100 fold
EC50 (U251, A172 and GBM8): 2000 to 4000 nM
viability of mouse neurons in primary culture [3]: did not affect the viability
